In patent publication US20230123334A1, “AMINO LIPID COMPOUND, PREPARATION METHOD THEREFOR, AND APPLICATION THEREOF” (SHENZHEN SHENXIN BIOTECHNOLOGY CO., LTD., priority 2020, published 2023):

System: HEK293 cells
Test: Preliminary screening as DNA vectors, GFP transfection of HEK293 cells
Format: cell-based
Summary of the method: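 HEK293 cells in DMEM/10% FBS transfected with 75 ng EGFP plasmid per well complexed with amino lipid/DOPE liposomes in pH 5.6 sodium acetate. Hoechst nuclear stain added 20-24 h post-transfection, then cells cultured another 20-24 h. Confocal imaging gives GFP-positive cells as % of total nuclei.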

[1] = amino lipid/DOPE liposome with 75 ng plasmid DNA (psin-EGFP-IRES-Puro), number of GFP-expressing cells divided by total nuclei (Hoechst)

Row | Structure (SMILES) | Absolute DNA transfection efficiency in HEK293 cells [1] | Absolute DNA transfection efficiency in HEK293 cells (HEK293 cells, lipid/DOPE liposome with 75 ng plasmid DNA (psin-EGFP-IRES-Puro), number of cells expressing GFP divided by total number of nuclei (Hoechst))
1 | CCCCCCCCCCCCCCSc1nc(NCCCCCCCCCCC)nc(NCCCN2CCN(C)CC2)n1 [S14N11 D9] | 10.2% | 
2 | CCCCCCCCCCCCCNc1nc(NCC2CCN(C)CC2)nc(SCCCCCCCCCCC)n1 [S11N13 D10] | 3.8% | 
3 | CCCCCCCCCCCCCCSc1nc(NCCCCCCC)nc(NCCN2CCCC2)n1 [S14N7 D3] | 14.4% | 
4 | CCCCCCCCCCCCCCCCCCSc1nc(NCCCCCCCCCCCC)nc(NCCCN2CCOCC2)n1 [S18N12 D8] | 0.0% | 
5 | CCCCCCCCCCCCCCCCNc1nc(NCC2CCN(C)CC2)nc(SCCCCCCCCCCCC)n1 [S12N16 D10] | 2.4% | 
6 | CCCCCCCCCCCCCCCCCCSc1nc(NCCCCCCC)nc(NCC2CCN(C)CC2)n1 [S18N7 D10] | 13.5% | 
7 | CCCCCCCCNc1nc(NCCN(CC)CC)nc(SCCCCCC)n1 [S6N8 D7] | 0.9% | 
8 | CCCCCCCCCCCCN(CCCCCCCCCCCC)c1nc(NCCCCCCCCCCC)nc(NCCN(CC)CC)n1 [Compound N112N12D7] |  | 0.4%
9 | CCCCCCCCCCCCCCSc1nc(NCCCCCCC)nc(NCCCN2CCOCC2)n1 [S14N7 D8] | 13.3% | 
10 | CCCCCCCCCCCCCCCCCCNc1nc(NCC2CCN(C)CC2)nc(SCCCCCCCCCC)n1 [S10N18 D10] | 3.8% | 
11 | CCCCCCCCCCCSc1nc(NCCN(C)C)nc(SCCCCCC)n1 [S6S11 D1] | 6.0% | 
12 | CCCCCCCCCCCCCCCNc1nc(NCCN2CCN(C)CC2)nc(SCCCCCCCCCC)n1 [S10N15 D5] | 3.2% | 
13 | CCCCCCCCCCCCNc1nc(NCCCN2CCOCC2)nc(SCCCCCCCCCC)n1 [S10N12 D8] | 5.3% | 
14 | CCCCCCCCCSc1nc(NCC2CCN(C)CC2)nc(SCCCCCCCC)n1 [S8S9 D10] | 27.9% | 
15 | CCCCCCCCCCCCCCCCCCNc1nc(NCCN(C)C)nc(SCCCCCCC)n1 [S7N18 D1] | 10.6% | 
16 | CCCCCCCCCCCCCCCNc1nc(NCC2CCN(C)CC2)nc(SCCCCCCCCC)n1 [S9N15 D10] | 19.0% | 
17 | CCCCCCCCCCCCCCSc1nc(NCCCCCCCCCCCCC)nc(NCCCN2CCOCC2)n1 [S14N13 D8] | 0.3% | 
18 | CCCCCCCCCCCCCCCCNc1nc(NCCN(CC)CC)nc(SCCCCCCCCCCCCCCCC)n1 [S16N16 D7] | 0.2% | 
19 | CCCCCCCCCCCSc1nc(NCCCCCCC)nc(NCCN2CCCC2)n1 [S11N7 D3] | 19.4% | 
20 | CCCCCCCCCCCSc1nc(NCCCCCC)nc(NCCN(CC)CC)n1 [S11N6 D7] | 25.0% | 
21 | CCCCCCCCCCCCCCCCNc1nc(NCCN2CCCC2)nc(SCCCCCC)n1 [S6N16 D3] | 19.8% | 
22 | CCCCCCCCCCCCSc1nc(NCCCCCCCCCCC)nc(NCCCN2CCN(C)CC2)n1 [S12N11 D9] | 3.9% | 
23 | CCCCCCCCCCCCSc1nc(NCCCCCC)nc(NCCCN2CCN(C)CC2)n1 [S12N6 D9] | 0.3% | 
24 | CCCCCCCCCCCNc1nc(NCCN(CC)CC)nc(SCCCCCC)n1 [S6N11 D7] | 2.2% | 

Row | Structure (SMILES) | Absolute DNA transfection efficiency in HEK293 cells [1] | Absolute DNA transfection efficiency in HEK293 cells (HEK293 cells, lipid/DOPE liposome with 75 ng plasmid DNA (psin-EGFP-IRES-Puro), number of cells expressing GFP divided by total number of nuclei (Hoechst))
25 | CCCCCCCCCCSc1nc(NCCCCCCCCC)nc(NCCN2CCCCC2)n1 [S10N9 D4] | 2.7% | 
26 | CCCCCCCCCCCCCCCCSc1nc(NCCN2CCCCC2)nc(SCCCCCC)n1 [S6S16 D4] | 7.9% | 
27 | CCCCCCCCCCCCCCCSc1nc(NCCCCCCC)nc(NCCCN2CCN(C)CC2)n1 [S15N7 D9] | 17.1% | 
28 | CCCCCCCCCCCCCCCNc1nc(NCCCN2CCOCC2)nc(SCCCCCCCCCCC)n1 [S11N15 D8] | 0.1% | 
29 | CCCCCCCCCCCCCNc1nc(NCCCN(C)C)nc(SCCCCCCCCCCC)n1 [S11N13 D6] | 13.6% | 
30 | CCCCCCCCCCCNc1nc(NCCCN2CCOCC2)nc(SCCCCCC)n1 [S6N11 D8] | 1.5% | 
31 | CCCCCCCCCCCCCCCCCCSc1nc(NCCCN2CCOCC2)nc(SCCCCCC)n1 [S6S18 D8] | 15.9% | 
32 | CCCCCCCCCCCCNc1nc(NCCCN2CCOCC2)nc(SCCCCCCCCC)n1 [S9N12 D8] | 13.6% | 
33 | CCCCCCCCCCCCNc1nc(NCCN2CCCC2)nc(SCCCCCCCCCCC)n1 [S11N12 D3] | 22.8% | 
34 | CCCCCCCCCCCCCCCCCCNc1nc(NCCN2CCCCC2)nc(SCCCCCCCCCC)n1 [S10N18 D4] | 4.9% | 
35 | CCCCCCCCCCCCCCCSc1nc(NCCCCCCCCC)nc(NCCN(C)C)n1 [S15N9 D1] | 21.3% | 
36 | CCCCCCCCCCCCNc1nc(NCCN(C)C)nc(SCCCCCCCCCCC)n1 [S11N12 D1] | 16.2% | 
37 | CCCCCCCCCCCNc1nc(NCCCN(C)C)nc(SCCCCCCCCCC)n1 [S10N11 D6] | 26.5% | 
38 | CCCCCCCCCCCCCCCNc1nc(NCCN2CCOCC2)nc(SCCCCCCCCC)n1 [S9N15 D2] | 7.3% | 
39 | CCCCCCCCCCCCCCCCCCNc1nc(NCCN2CCCC2)nc(SCCCCCCCCCCCC)n1 [S12N18 D3] | 3.9% | 
40 | CCCCCCCCCCCCSc1nc(NCCCCCC)nc(NCCCN2CCOCC2)n1 [S12N6 D8] | 0.1% | 
41 | CCCCCCCCCCCCCCCCCCSc1nc(NCCCCCCCCC)nc(NCCN2CCCCC2)n1 [S18N9 D4] | 4.0% | 
42 | CCCCCCCCCCCCCCCCSc1nc(NCCCCCCCC)nc(NCCN(CC)CC)n1 [S16N8 D7] | 4.6% | 
43 | CCCCCCCCCCCCCCCNc1nc(NCCN2CCCCC2)nc(SCCCCCCCCC)n1 [S9N15 D4] | 4.2% | 
44 | CCCCCCCCCCCCNc1nc(NCCN(CC)CC)nc(SCCCCCCCCCC)n1 [S10N12 D7] | 5.9% | 
45 | CCCCCCCCCCCCN(CCCCCCCCCCCC)c1nc(NCCN2CCN(C)CC2)nc(SCCCCCCC)n1 [S7^2N12 D5] | 0.2% | 
46 | CCCCCCCCCCCCCCCCNc1nc(NCC2CCN(C)CC2)nc(SCCCCCCCCCCC)n1 [S11N16 D10] | 3.9% | 
47 | CCCCCCCCCCCCN(CCCCCCCCCCCC)c1nc(NCCCN2CCN(C)CC2)nc(SCCCCCCCCCCC)n1 [S11^2N12 D9] | 0.0% | 
48 | CCCCCCCCCCCCCCCCSc1nc(NCCCCCCCCC)nc(NCCN2CCCCC2)n1 [S16N9 D4] | 9.1% | 

Row | Structure (SMILES) | Absolute DNA transfection efficiency in HEK293 cells [1] | Absolute DNA transfection efficiency in HEK293 cells (HEK293 cells, lipid/DOPE liposome with 75 ng plasmid DNA (psin-EGFP-IRES-Puro), number of cells expressing GFP divided by total number of nuclei (Hoechst))
49 | CCCCCCNc1nc(NCCN2CCCCC2)nc(SCCCCCC)n1 [S6N6 D4] | 0.0% | 
50 | CCCCCCCCCCCCCCCNc1nc(NCCN(C)C)nc(SCCCCCCCCCCCCCC)n1 [S14N15 D1] | 0.4% | 
51 | CCCCCCCCCCCCNc1nc(NCC2CCN(C)CC2)nc(SCCCCCCCCCCCC)n1 [S12N12 D10] | 9.3% | 
52 | CCCCCCCCCCCCCCCCCCNc1nc(NCCN2CCOCC2)nc(SCCCCCCCCCCCCCC)n1 [S14N18 D2] | 0.0% | 
53 | CCCCCCCCCCCCCCCSc1nc(NCCCCCC)nc(NCC2CCN(C)CC2)n1 [S15N6 D10] | 26.5% | 
54 | CCCCCCCCCCCNc1nc(NCCN2CCOCC2)nc(SCCCCCCCCCCC)n1 [S11N11 D2] | 6.3% | 
55 | CCCCCCCCCCCCCCCCCCSc1nc(NCCN(CC)CC)nc(SCCCCCC)n1 [S6S18 D7] | 6.4% | 
56 | CCCCCCCCCCCCCCCNc1nc(NCCN(CC)CC)nc(SCCCCCCC)n1 [S7N15 D7] | 7.2% | 
57 | CCCCCCCCCCCCNc1nc(NCCCN2CCOCC2)nc(SCCCCCCCC)n1 [S8N12 D8] | 16.1% | 
58 | CCCCCCCCCCCSc1nc(NCCCCCCCCC)nc(NCCN2CCCCC2)n1 [S11N9 D4] | 1.1% | 
59 | CCCCCCCCCCCCCCCCCCSc1nc(NCCCCCCCCCCCCCCC)nc(NCCCN2CCN(C)CC2)n1 [S18N15 D9] | 0.1% | 
60 | CCCCCCCCCCCCCCCCSc1nc(NCCCCCC)nc(NCCN2CCCC2)n1 [S16N6 D3] | 35.3% | 
61 | CCCCCCCCCCCCCCCCSc1nc(NCCN2CCCC2)nc(N(CCCCCCCCCCCC)CCCCCCCCCCCC)n1 [S16^2N12 D3] | 0.0% | 
62 | CCCCCCCCCCCCCCCNc1nc(NCCN2CCOCC2)nc(SCCCCCCCCCCCCCC)n1 [S14N15 D2] | 0.1% | 
63 | CCCCCCCCCCCNc1nc(NCCN2CCN(C)CC2)nc(SCCCCCCCC)n1 [S8N11 D5] | 52.7% | 
64 | CCCCCCCCCCCCCCCCCCSc1nc(NCCCCCCCCCCC)nc(NCCCN(C)C)n1 [S18N11 D6] | 5.2% | 
65 | CCCCCCCCCCCCCCCCSc1nc(NCCCCCCCC)nc(NCCN2CCCC2)n1 [S16N8 D3] | 13.2% | 
66 | CCCCCCCCCCCSc1nc(NCCCCCCCCC)nc(NCCN(CC)CC)n1 [S11N9 D7] | 2.0% | 
67 | CCCCCCCCCCCCCCCCSc1nc(NCCCCCCCCCCCCC)nc(NCCN2CCN(C)CC2)n1 [S16N13 D5] | 0.8% | 
68 | CCCCCCCCSc1nc(NCCCN2CCOCC2)nc(SCCCCCCCC)n1 [S8S8 D8] | 13.8% | 
69 | CCCCCCNc1nc(NCCN2CCCC2)nc(SCCCCCC)n1 [S6N6 D3] | 0.0% | 
70 | CCCCCCSc1nc(NCCCN2CCN(C)CC2)nc(SCCCCCC)n1 [S6S6 D9] | 7.6% | 
